Data from USRE39034E1, “Molecule involved in binding of sperm to egg surfaces and procedures for use of this molecule to enhance or decrease potential fertility” (The Penn State Research Foundation, priority 1996, dated 2006).
Entries after “also recorded” stand apart in the source; their conditions may differ. Bridges are numbered along the chain shown (N, C = ends). Where no end group is shown, it is not given here. [ ]: non-standard residue; d: D form.

Tests used:
[1] = tested on: frozen-thawed rooster sperm binding to an extract of hen's egg membrane; experiment: In vitro microwell sperm-egg binding assay, sperm treated with peptides (fluorescent plate reader); assay type: cell-based; details: for Activity relative to SEQ ID NO: 1 / Biological activity / sperm binding capability (in words) / Peptide concentration which, after tenfold dilution of the sperm suspension, provided maximum binding / Concentration at which binding activity was induced (active at): frozen-thawed rooster sperm; for Peptide concentration which, after tenfold dilution of the sperm suspension, provided maximum binding: hen's egg membrane extract in microwell plate
From the text: The biological activity of the native UPSEBP prepared from rooster sperm and synthetic amino acid sequences were compared in an in vitro assay of sperm binding described in copending U.S. patent application Ser. No. 08/234,448. This microwell assay used plates in which the wells were coated with a binding substrate prepared from an extract of hen's egg vitelline membrane. The thawed rooster sperm, known to be reduced in UPSEBP, were washed once with isotonic salt solutions, resuspended at 50×10^5/0.1 ml, and incubated 30 minutes with 0.02-50 μg/0.5 ml native UPSEBP or synthetic peptide. Then 0.1 ml of a suspension of about 5×10^6 sperm were placed into each of triplicate wells in a microwell plate. After 2 hours of incubation at 37° C., unbound sperm were washed away and bound sperm were stained and counted using a microscope. The number of sperm bound was considered to be a measure of biological activity because there is a high correlation between the number of rooster sperm bound in vitro to such an egg extract and the fertilizing potential of sperm in that sample, as quantified by the percentage of eggs hatching young chicks after artificial insemination. Table No. 1 presents the amino acid sequence of synthetic peptides and the resulting binding capacity as compared to native UPSEBP (full sequence not provided). Initial evaluations of the capabilities of SEQ ID NO:1 through SEQ ID NO:11, native UPSEBP and rat SGP-1 to enhance sperm binding to an egg-membrane substrate were based on visual counts of bound sperm and conducted over a number of months. The binding data for SEQ ID NO:1 through SEQ ID NO:12 and native UPSEBP and rat SGP-1 presented in Table No. 1 were obtained as two data sets using a recent version of that sperm-egg binding assay in which the bound sperm were stained with a fluorescent dye binding to DNA and quantified using a fluorescent microwell-plate reader, by techniques known to those skilled in the art. The amino acid sequences of portions of human prosaposin (SEQ ID NO:15) and mouse prosaposin (SEQ ID NO:16) also are as shown. [table]

[2] = tested on: frozen-thawed rooster sperm; experiment: Restoration of binding capability of frozen-thawed rooster sperm to hen's egg membrane extract (Examples 1, 2, 6, 7); assay type: cell-based; details: FIG. 2
From the text: Although the invention has been described generally above, particular examples give additional illustration of the products and method steps typical of the present polypeptide and uses thereof. The data presented in FIGS. 1 to 3 and 6 to 9 show the number of sperm bound per unit area of laid hen's egg perivitelline membrane, or data derived from such binding, or bound to a substrate prepared using an extract from such perivitelline membranes pursuant to the method disclosed in co-pending patent application Ser. No. 08/234,448. Except when noted, native protein extracted from rooster sperm with UPSEBP activity was used.
Freshly collected rooster sperm were cryopreserved, thawed and processed to remove glycerol. One portion of the thawed sperm received crude UPSEBP at a concentration of 2 μg protein per 10^6 sperm. Samples containing 1-10×10^6 sperm were placed into wells coated with an extract of hen's egg membrane and incubated 180 minutes. Non-bound sperm were removed by washing, and bound sperm were stained with diamido-2-phenylindole and counted using an epifluorescent microscope.
Rooster sperm subjected to a cryopreservation cycle were treated with increasing amounts of partially purified UPSEBP and subject to a standard binding assay, together with aliquots of unfrozen (fresh) sperm.
Frozen-thawed turkey sperm were exposed to rooster UPSEBP or semi-purified SGP-1.

Row | Activity relative to SEQ ID NO: 1 [1] | Peptide concentration which, after tenfold dilution of the sperm suspension, provided maximum binding [1] | Molecule | Biological activity / sperm binding capability (in words) [1] | also measured
1 | 0.0006 | 300 nmol | SEQ ID NO:2: Table 1 sequence: Tyr-Pro-Gln-Asp-Arg-Thr-Arg-Ser-Gln-Pro-Gln-Pro (YPQDRTRSQPQP; Portion of SEQ ID NO 1 showing lower binding capability.) | lower binding capability | –
2 | 1 | 3.17 nmol | YPQDRTRSQPQPKAN [SEQ ID NO:1] | greater biological activity than SEQ ID NO:2 through SEQ ID NO:8 | Biological activity / sperm binding capability (in words) ([1]; listed as SEQ NO:1): substantial binding activity; Number of sperm bound to the egg membrane substrate ([1]; nanomolar concentrations of peptide): approximately twice as many sperm bound
3 | 0.0005 | 370 nmol | SEQ ID NO:6: Table 1 sequence: Tyr-Pro-Gln-Asp-Arg-Thr-Arg-Ser-Gln-Pro-Gln-Cys (YPQDRTRSQPQC; Replacement of the terminal proline of SEQ ID NO 2 with a cysteine does not substantially change biological activity.) | minimal change in biological activity relative to SEQ ID NO:2 | –
4 | 0.002 | 100 nmol | SEQ ID NO:8: Table 1 sequence: Phe-Phe-Tyr-Pro-Gln-Asp-Arg-Thr-Arg-Ser-Gln-Pro-Gln-Pro (FFYPQDRTRSQPQP; Addition of a phenylalanine group to the NH2 end of SEQ ID NO 2 does not substantially suppress biological activity.) | did not suppress biological activity relative to SEQ ID NO:2 | –
5 | 0.003 | 50 nmol | SEQ ID NO:7: Table 1 sequence: Acetyl-Tyr-Pro-Gln-Asp-Arg-Thr-Arg-Ser-Gln-Pro-Gln-Pro (Ac-YPQDRTRSQPQP) | did not suppress biological activity relative to SEQ ID NO:2 | –
6 | 0.0001 | 2,125 nanomoles | SEQ ID NO:3: Table 1 sequence: Gln-Pro-Gln-Pro-Lys-Ala-Asn (QPQPKAN; Portion of SEQ ID NO 1 essentially devoid of binding capability.) | essentially devoid of binding capability | –

More lines, now with the values behind:

Row | Molecule | Activity relative to SEQ ID NO: 1 [1] | Peptide concentration which, after tenfold dilution of the sperm suspension, provided maximum binding [1] | Biological activity / sperm binding capability (in words) [1] | also measured
7 | CQSLQEYLAEQNQRQLESNKIPEVDLARVVAPFMSNIPLLLYPQDRPRSQPQPKANEDVC (cysteine pairing not given here) [SEQ ID NO:12] | – | – | conferred substantial binding activity especially when oxidized to form a molecule with a hairpin form | –
8 | SEQ ID NO:12 hairpin form: SEQ ID NO:12 modified by induced oxidation of the SH-groups to a closed loop (CQSLQEYLAEQNQRQLESNKIPEVDLARVVAPFMSNIPLLLYPQDRPRSQPQPKANEDVC; disulfide 1-60 (inferred)) | – | – | enhanced biological activity | Activity relative to the linear form of SEQ ID NO:12 [1]: 5 times; Potency relative to SEQ ID NO:1 [1]: 425 times; Concentration at which binding activity was induced (active at) [1]: 0.4 pM
9 | SEQ ID NO:10: Table 1 sequence: L-Leu-Tyr-Pro-Gln-Asp-Arg-Thr-Arg-Ser-Gln-Pro-Gln-Pro-Lys-Ala-Asn (LYPQDRTRSQPQPKAN; L-amino acids; SITE 1 L-isomer) | 0.94 | 8.8 nmol | greater than that of SEQ ID NO:11; also recorded: reduced activity relative to SEQ ID NO:1 | –
10 | SEQ ID NO:12 linear form: SEQ ID NO:12 as synthesized, 60 amino acid molecule (CQSLQEYLAEQNQRQLESNKIPEVDLARVVAPFMSNIPLLLYPQDRPRSQPQPKANEDVC; Synthetic peptide embodying the complete intervening sequence between rat saposin A and saposin B.) | – | – | substantial biological activity | Potency relative to SEQ ID NO:9 [1]: approximately 90 times; Concentration at which binding activity was induced (active at) [1]: 2 pM
11 | SEQ ID NO:11: Table 1 sequence: D-Leu-Tyr-Pro-Gln-Asp-Arg-Thr-Arg-Ser-Gln-Pro-Gln-Pro-Lys-Ala-Asn ([dL]YPQDRTRSQPQPKAN) | 0.001 | 25 nmol | reduced activity relative to SEQ ID NO:1 | –
12 | SEQ ID NO:5: Table 1 sequence: Pro-Gln-Pro-Lys-Ala-Asn-Glu-Asp-Val-Cys-Gln-Asp-Cys-Met-Lys-Leu-Val-Thr-Asp (PQPKANEDVCQDCMKLVTD; Addition of amino acids distal to the terminal asparagine of SEQ ID NO 3 does not substantially change biological activity.) | 0.0003 | 510 nmol | – | –
13 | SEQ ID NO:4: Table 1 sequence: Gln-Pro-Gln-Pro-Lys-Ala-Asn-Glu-Asp-Val-Cys-Gln-Asp-Cys-Met (QPQPKANEDVCQDCM; Addition of amino acids distal to the terminal asparagine of SEQ ID NO 3 does not substantially change biological activity.) | 0.002 | 85 nmol | did not substantially change biological activity | –
14 | YPQDRPRSQPQPKAN [SEQ ID NO:9] | 0.94 | 0.18 nmol | substantial binding activity; also recorded: very high biological activity, approximately equal to that of SEQ ID NO:1 | –
15 | human saposin B: human saposin produced by proteolytic cleavage of prosaposin (protein, UniProt P07602 195-273, looked up, Saposin-B, human saposin produced by proteolytic cleavage of prosaposin) Saposin-B: GDVCQDCIQMVTDIQTAVRTNSTFVQALVEHVKEECDRLGPGMADICKNYISQYSEIAIQMMMHMQPKEICALVGFCDE | – | – | – | Binding restored, percent of that obtained by exposure to UPSEBP ([2]; UPSEBP 2 μg/million sperm): about 70%
16 | saposin D: human saposin produced by proteolytic cleavage of prosaposin (protein, UniProt P07602 405-486, looked up, Saposin-D, human saposin produced by proteolytic cleavage of prosaposin) Saposin-D: DGGFCEVCKKLVGYLDRNLEKNSTKQEILAALEKGCSFLPDPYQKQCDQFVAEYEPVLIEILVEVMDPSFVCLKIGACPSAH | – | – | – | Restoration of binding (in words) [2]: ineffective at restoring binding
17 | saposin C: human saposin produced by proteolytic cleavage of prosaposin (protein, UniProt P07602 311-390, looked up, Saposin-C, human saposin produced by proteolytic cleavage of prosaposin) Saposin-C: SDVYCEVCEFLVKEVTKLIDNNKTEKEILDAFDKMCSKLPKSLSEECQEVVDTYGSSILSILLEEVSPELVCSMLHLCSG | – | – | – | Restoration of binding (in words) [2]: ineffective at restoring binding
18 | saposin A: human saposin produced by proteolytic cleavage of prosaposin (protein, UniProt P07602 60-142, looked up, Saposin-A, human saposin produced by proteolytic cleavage of prosaposin) Saposin-A: SLPCDICKDVVTAAGDMLKDNATEEEILVYLEKTCDWLPKPNMSASCKEIVDSYLPVILDIIKGEMSRPGEVCSALNLCESLQ | – | – | – | Restoration of binding (in words) [2]: ineffective at restoring binding
